Results taken from patent publication US9751837B2, “Kinase inhibitors” (RESPIVERT LIMITED, priority 2014, dated 2017).
≈ marks a conversion by molar mass, not a printed value.

Key:
Jurkat cells = test: Cell cytotoxicity assay (r); type: cell-based, human; settings: 24 hours
Procedure: 1×10^5 Jurkat cells (immortalised human T lymphocytes) are added to the appropriate number of wells of a 96 well plate in 100 μL of media (RPMI supplemented with 10% foetal bovine serum). 1 μL of DMSO control (final concentration 1.0% v/v) or test compound (final concentration 20, 5 or 1 μg/mL) is added to the wells and incubated at 37° C., 5% CO2. After 24 hours, the plate is centrifuged at 1200 rpm for 3 minutes and the supernatant discarded. Cells are then resuspended in 150 μL (final concentration 7.5 μg/mL) of propidium iodide (PI) in PBS and incubated at 37° C., 5% CO2 for 15 minutes. After 15 minutes, cells are analysed by flow cytometry (BD accuri) using the FL3 window. The % viability is calculated as the % of cells that are PI negative in the test wells normalised to the DMSO control.

[1] = Solubility in fasted-state simulated colonic fluid (FaSSCoF) at pH 6.5; type: physicochemical; settings: 25 °C, pH 6.5, fassgf or other biorelevant, thermodynamic from solid
How it was run: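 Compounds were suspended at up to 2-10 mg/mL in pH 6.5 Tris/maleate FaSSCoF containing a five-bile-acid mixture, phosphatidylcholine, palmitic acid and BSA. After 24 h equilibration at 25° C the suspension was filtered and the filtrate quantified by HPLC peak area against a standard.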

[2] = pH 6.5 FaSSCoF Solubility (mg/mL) Run 1
[3] = pH 6.5 FaSSCoF Solubility (mg/mL) Run 2

Row | solubility thermodynamic at 24 h [1, 2] [µg/mL] | solubility thermodynamic at 24 h [1, 3] [µg/mL] | Structure (SMILES) | % Viability at 20 μg/mL (Jurkat cells) [%] | % Viability at 5 μg/mL (Jurkat cells) [%] | % Viability at 1 μg/mL (Jurkat cells) [%]
1 | 47 (≈ 57 µM) | 49 (≈ 59.4 µM) | COc1cc(Nc2nccc(Oc3ccc(NC(=O)Nc4cc(C(C)(C)C)cc(NS(C)(=O)=O)c4OC)c4ccccc34)n2)ccc1C(=O)NCCC1CCN(C)CC1 [17(an), 4-((4-((4-(3-(5-(tert-butyl)-2-methoxy-3-(methylsulfonamido)phenyl)ureido)naphthalen-1-yl)oxy)pyrimidin-2-yl)amino)-2-methoxy-N-(2-(1-methylpiperidin-4-yl)ethyl)benzamide] | 1.1 | – | –
2 | 9 (≈ 10.9 µM) | 9 (≈ 10.9 µM) | COc1cc(Nc2nccc(Oc3ccc(NC(=O)Nc4cc(C(C)(C)C)cc(NS(C)(=O)=O)c4OC)c4ccccc34)n2)ccc1C(=O)NCCCN1CCOCC1 [17(ao), 4-((4-((4-(3-(5-(tert-Butyl)-2-methoxy-3-(methylsulfonamido)phenyl)ureido)naphthalen-1-yl)oxy)pyrimidin-2-yl)amino)-2-methoxy-N-(3-morpholinopropyl)benzamide] | 1.6 | – | –
3 | < 1 | < 1 | COc1cc(Nc2nccc(Oc3ccc(NC(=O)Nc4cc(C(C)(C)C)cc(NS(C)(=O)=O)c4OC)c4ccccc34)n2)ccc1C(=O)NCCCN1CCN(C)CC1 [17(ap), 4-((4-((4-(3-(5-(tert-Butyl)-2-methoxy-3-(methylsulfonamido)phenyl)ureido)naphthalen-1-yl)oxy)pyrimidin-2-yl)amino)-2-methoxy-N-(3-(4-methylpiperazin-1-yl)propyl)benzamide] | 0.6 | – | –
4 | < 1 | < 1 | COc1cc(Nc2nccc(Oc3ccc(NC(=O)Nc4cc(C(C)(C)C)cc(NS(C)(=O)=O)c4OC)c4ccccc34)n2)ccc1C(=O)NCCN1CCN(C)CC1 [17(aq), 4-((4-((4-(3-(5-(tert-Butyl)-2-methoxy-3-(methylsulfonamido)phenyl)ureido)naphthalen-1-yl)oxy)pyrimidin-2-yl)amino)-2-methoxy-N-(2-(4-methylpiperazin-1-yl)ethyl)benzamide] | 1.3 | 0.2 | –
5 | 32 (≈ 36.8 µM) | 23 (≈ 26.5 µM) | COc1cc(Nc2cc(Oc3ccc(NC(=O)Nc4cc(C(C)(C)C)cc(NS(C)(=O)=O)c4OC)c4ccccc34)ccn2)cc(OC)c1C(=O)NCCCN1CCN(C)CC1 [17(au), 4-((4-((4-(3-(5-(tert-Butyl)-2-methoxy-3-(methylsulfonamido)phenyl)ureido)naphthalen-1-yl)oxy)pyridin-2-yl)amino)-2,6-dimethoxy-N-(3-(4-methylpiperazin-1-yl)propyl)benzamide] | – | – | 94.0
6 | 1 (≈ 1.17 µM) | 1 (≈ 1.17 µM) | COc1cc(Nc2nccc(Oc3ccc(NC(=O)Nc4cc(C(C)(C)C)cc(NS(C)(=O)=O)c4OC)c4ccccc34)n2)cc(OC)c1C(=O)NCCN1CCN(C)CC1 [17(az), 4-((4-((4-(3-(5-(tert-Butyl)-2-methoxy-3-(methylsulfonamido)phenyl)ureido)naphthalen-1-yl)oxy)pyrimidin-2-yl)amino)-2,6-dimethoxy-N-(2-(4-methylpiperazin-1-yl)ethyl)benzamide] | 4.5 | – | –
7 | – | – | COc1cc(Nc2cc(Oc3ccc(NC(=O)Nc4cc(C(C)(C)C)cc(NS(C)(=O)=O)c4OC)c4ccccc34)ccn2)ccc1C(=O)NCCCCCN(C)C [17(bd), 4-((4-((4-(3-(5-(tert-Butyl)-2-methoxy-3-(methylsulfonamido)phenyl)ureido)naphthalen-1-yl)oxy)pyridin-2-yl)amino)-N-(5-(dimethylamino)pentyl)-2-methoxybenzamide] | 0.1 | – | –
8 | – | – | CCN1CCN(CCNC(=O)c2ccc(Nc3cc(Oc4ccc(NC(=O)Nc5cc(C(C)(C)C)cc(NS(C)(=O)=O)c5OC)c5ccccc45)ccn3)cc2OC)CC1 [17(be), 4-((4-((4-(3-(5-(tert-Butyl)-2-methoxy-3-(methylsulfonamido)phenyl)ureido)naphthalen-1-yl)oxy)pyridin-2-yl)amino)-N-(2-(4-ethylpiperazin-1-yl)ethyl)-2-methoxybenzamide] | 0.5 | 0.7 | –
9 | – | – | COc1cc(Nc2cc(Oc3ccc(NC(=O)Nc4cc(C(C)(C)C)cc(NS(C)(=O)=O)c4OC)c4ccccc34)ccn2)ccc1C(=O)NCCN1CCN(C)CC1(C)C [17(bi), 4-((4-((4-(3-(5-(tert-Butyl)-2-methoxy-3-(methylsulfonamido)phenyl)ureido)naphthalen-1-yl)oxy)pyridin-2-yl)amino)-2-methoxy-N-(2-(2,2,4-trimethylpiperazin-1-yl)ethyl)benzamide] | 0.6 | 0.8 | –
10 | – | – | CCC(=O)NS(=O)(=O)c1ccc(Nc2nccc(Oc3ccc(NC(=O)Nc4cc(C(C)(C)C)cc(NS(C)(=O)=O)c4OC)c4ccccc34)n2)cc1OC [17(bk), N-((4-((4-((4-(3-(5-(tert-Butyl)-2-methoxy-3-(methylsulfonamido)phenyl)ureido)-naphthalen-1-yl)oxy)pyrimidin-2-yl)amino)-2-methoxyphenyl)sulfonyl)propionamide] | – | – | 93.0
11 | – | – | COc1cc(Nc2cc(Oc3ccc(NC(=O)Nc4cc(NS(C)(=O)=O)cc(C(C)(C)C)c4)c4ccccc34)ccn2)ccc1C(=O)NCCC1CCN(C)CC1 [17(bs), 4-((4-((4-(3-(3-(tert-Butyl)-5-(methylsulfonamido)phenyl)ureido)naphthalen-1-yl)oxy)pyridin-2-yl)amino)-2-methoxy-N-(2-(1-methylpiperidin-4-yl)ethyl)benzamide] | 0.3 | – | –
12 | – | – | COc1cc(Nc2nccc(Oc3ccc(NC(=O)Nc4cc(C(C)(C)C)cc(NS(C)(=O)=O)c4OC)c4ccccc34)n2)ccc1C(=O)NCCOCCOCCO [17(by), 4-((4-((4-(3-(5-(tert-Butyl)-2-methoxy-3-(methylsulfonamido)phenyl)ureido)naphthalen-1-yl)oxy)pyrimidin-2-yl)amino)-N-(2-(2-(2-hydroxyethoxy)ethoxy)ethyl)-2-methoxybenzamide] | 1.6 | – | –
13 | – | – | COc1cc(Nc2cc(Oc3ccc(NC(=O)Nc4cc(C(C)(C)C)cc(NS(C)(=O)=O)c4OC)c4ccccc34)ccn2)ccc1S(=O)(=O)CCCN1CCN(C)CC1 [17(ch), N-(5-(tert-Butyl)-2-methoxy-3-(3-(4-((2-((3-methoxy-4-((3-(4-methylpiperazin-1-yl)propyl)sulfonyl)phenyl)amino)pyridin-4-yl)oxy)naphthalen-1-yl)ureido)phenyl)methanesulfonamide] | 0.7 | – | 82.0
14 | – | – | COc1cc(Nc2cc(Oc3ccc(NC(=O)Nc4cc(C(C)(C)C)cc(NS(C)(=O)=O)c4OC)c4ccccc34)ccn2)ccc1C(=O)N[C@@H]1CCN(C)C1 [17(cq), (R)-4-((4-((4-(3-(5-(tert-Butyl)-2-methoxy-3-(methylsulfonamido)phenyl)ureido)-naphthalen-1-yl)oxy)pyridin-2-yl)amino)-2-methoxy-N-(1-methylpyrrolidin-3-yl)benzamide] | 0.7 | 9.0 | –
15 | – | – | COc1cc(Nc2cc(Oc3ccc(NC(=O)Nc4cc(C(C)(C)C)cc(NS(C)(=O)=O)c4OC)c4ccccc34)ccn2)ccc1C(=O)NCCN1CC[C@@H](O)C1 [17(cr), (R)-4-((4-((4-(3-(5-(tert-Butyl)-2-methoxy-3-(methylsulfonamido)phenyl)ureido)-naphthalen-1-yl)oxy)pyridin-2-yl)amino)-N-(2-(3-hydroxypyrrolidin-1-yl)ethyl)-2-methoxybenzamide] | 0.9 | 18.0 | –
16 | – | – | COc1cc(Nc2cc(Oc3ccc(NC(=O)Nc4cc(C(C)(C)C)cc(NS(C)(=O)=O)c4OC)c4ccccc34)ccn2)ccc1S(=O)(=O)N(C)CCCN1CCN(C)CC1 [Example 25, 4-((4-((4-(3-(5-(tert-Butyl)-2-methoxy-3-(methylsulfonamido)phenyl)ureido)naphthalen-1-yl)oxy)pyridin-2-yl)amino)-2-methoxy-N-methyl-N-(3-(4-methylpiperazin-1-yl)propyl)benzenesulfonamide] | 0.7 | – | –
17 | – | – | COc1cc(Nc2cc(Oc3ccc(NC(=O)Nc4cc(C(C)(C)C)cc(NS(C)(=O)=O)c4OC)c4ccccc34)ccn2)ccc1C(=O)NCCC1CCNCC1 [Example 27, 4-((4-((4-(3-(5-(tert-Butyl)-2-methoxy-3-(methylsulfonamido)phenyl)ureido)naphthalen-1-yl)oxy)pyridin-2-yl)amino)-2-methoxy-N-(2-(piperidin-4-yl)ethyl)benzamide] | 1.7 | – | –
18 | – | – | COc1cc(Nc2cc(Oc3ccc(NC(=O)Nc4cc(C(C)(C)C)cc(C(=O)NCCO)c4OC)c4ccccc34)ccn2)ccc1C(=O)NCCN1CC[S+]([O-])CC1 [Example 32, 5-(tert-Butyl)-N-(2-hydroxyethyl)-2-methoxy-3-(3-(4-((2-((3-methoxy-4-((2-(1-oxidothiomorpholino)ethyl)carbamoyl)phenyl)amino)pyridin-4-yl)oxy)naphthalen-1-yl)ureido)benzamide] | 2.5 | – | –
